The source made the active and inactive calls. The calls are words filed in the database; no cut-off is given here.
Assays:
Mus musculus [1] = experiment: In vivo inhibition of ERGlu1 in BALB/c mouse assessed as increase in mono-glucosylated FOS level in lung at 100 to 1000 mg/kg, po administered via gavage at 8 hrs post-infection and measured at 8 hrs post-dose by NP-HPLC analysis; type: functional, organism-based
Mus musculus [2] = experiment: In vivo inhibition of ERGlu2 in BALB/c mouse assessed as increase in mono-glucosylated FOS level in lung at 20 mg/kg, po administered via gavage starting at 8 hrs post-infection and continuing tid for 5 days and measured at 8 hrs post-final dose by NP-HPLC analysis; type: functional, organism-based
dengue virus type 2 [3] = experiment: (§1) Antiviral activity against Dengue virus 2 S221 infected in DENV antibody dependent enhancement AG129 mouse model assessed as reduction in IL-10 level at 750 mg/kg, po administered via gavage as two doses at 36 hrs and 52 hrs post infection measured at 72 hrs post-infection by electrochemiluminescence based method; type: functional, organism-based
Influenza A virus [4] = experiment: Antiviral activity against Influenza A virus (A/Texas/36/1991(H1N1)) infected in BALB/c mouse assessed as animal survival at 500 mg/kg, po administered via gavage as two doses at 8 and 32 hrs post infection (reference value: 0%); type: functional
dengue virus type 2 [5] = experiment: as §1, with “IFN-gamma” for “IL-10”, “single dose” for “two doses”, “36” for “36 hrs and 52”, “60” for “72”; type: functional, organism-based
Influenza A virus [6] = experiment: Antiviral activity against Influenza A virus (A/PA/10/2010 (H3N2)) infected in BALB/c mouse assessed as increase in animal survival rate at >250 mg/kg, po administered via gavage as single dose at 8 hrs post infection; type: functional, organism-based
dengue virus type 2 [7] = experiment: as §1, with “TNF-alpha” for “IL-10”, “single dose” for “two doses”, “36” for “36 hrs and 52”, “52” for “72”; type: functional, organism-based
dengue virus type 2 [8] = experiment: as §1, with “60” for “72”; type: functional, organism-based
[9] = Toxicity in po dosed cynomolgus monkey assessed as maximum tolerated dose administered via gavage as single dose; type: organism-based, Macaca fascicularis; settings: in vivo
Influenza A virus [10] = experiment: Antiviral activity against Influenza A virus (A/Texas/36/1991(H1N1)) infected in BALB/c mouse assessed as median death time at 250 mg/kg, po administered via gavage as three dosed at 8, 32 and 56 hrs post infection (reference value: 8 days); type: functional
dengue virus type 2 [11] = experiment: Antiviral activity against Dengue virus 2 S221 infected in DENV antibody dependent enhancement AG129 mouse model assessed as animal survival at 375 mg/kg, po administered via gavage as two doses at 16 and 32 hrs post infection (reference value: 4%); type: functional
dengue virus type 2 [12] = experiment: Antiviral activity against Dengue virus 2 S221 infected in DENV antibody dependent enhancement AG129 mouse model assessed as animal survival at 250 mg/kg, po administered via gavage as two doses at 36 and 52 hrs post infection (reference value: 4%); type: functional
dengue virus type 2 [13] = experiment: Antiviral activity against Dengue virus 2 S221 infected in DENV antibody dependent enhancement AG129 mouse model assessed as animal survival at 750 mg/kg, po administered via gavage as two doses at 48 and 64 hrs post infection (reference value: 4%); type: functional
dengue virus type 2 [14] = experiment: Antiviral activity against Dengue virus 2 S221 infected in DENV antibody dependent enhancement AG129 mouse model assessed as animal survival at 750 mg/kg, po administered via gavage as two doses at 16 and 32 hrs post infection (reference value: 4%); type: functional
Influenza A virus [15] = experiment: Antiviral activity against Influenza A virus (A/Texas/36/1991(H1N1)) infected in BALB/c mouse assessed as median death time at 750 mg/kg, po administered via gavage as three dosed at 8, 32 and 56 hrs post infection (reference value: 8 days); type: functional
dengue virus type 2 [16] = experiment: as §1, with “single dose” for “two doses”, “36” for “36 hrs and 52”; type: functional, organism-based
dengue virus type 2 [17] = experiment: as §1, with “KC-GRO” for “IL-10”, “single dose” for “two doses”, “36” for “36 hrs and 52”; type: functional, organism-based
dengue virus type 2 [18] = experiment: as §1, with “TNF-alpha” for “IL-10”, “single dose” for “two doses”, “36” for “36 hrs and 52”; type: functional, organism-based
dengue virus type 2 [19] = experiment: Antiviral activity against Dengue virus 2 S221 infected in DENV antibody dependent enhancement AG129 mouse model assessed as animal survival at 750 mg/kg, po administered via gavage as two doses at 8 and 24 hrs post infection (reference value: 4%); type: functional
dengue virus type 2 [20] = experiment: as §1, with “KC-GRO” for “IL-10”, “60” for “72”; type: functional, organism-based
Influenza A virus [21] = experiment: Antiviral activity against Influenza A virus (A/Texas/36/1991(H1N1)) infected in BALB/c mouse assessed as animal survival at 750 mg/kg, po administered via gavage as three doses at 8, 32 and 56 hrs post infection (reference value: 0%); type: functional
dengue virus type 2 [22] = experiment: as §1, with “TNF-alpha” for “IL-10”, “single dose” for “two doses”, “36” for “36 hrs and 52”, “60” for “72”; type: functional, organism-based
Influenza A virus [23] = experiment: Antiviral activity against Influenza A virus (A/Texas/36/1991(H1N1)) infected in BALB/c mouse assessed as median death time at 500 mg/kg, po administered via gavage as single dose at 16 hrs post infection (reference value: 8.5 days); type: functional
Influenza A virus [24] = experiment: Antiviral activity against Influenza A virus (A/Texas/36/1991(H1N1)) infected in BALB/c mouse assessed as increase in animal survival rate at >250 mg/kg, po administered via gavage as single dose at 8 hrs post-infection; type: functional, organism-based
dengue virus type 2 [25] = experiment: as §1, with “IL-12/IL-23p40” for “IL-10”, “single dose” for “two doses”, “36” for “36 hrs and 52”, “60” for “72”; type: functional, organism-based
dengue virus type 2 [26] = experiment: as §1, with “IFN-gamma” for “IL-10”, “60” for “72”; type: functional, organism-based
dengue virus type 2 [27] = experiment: Antiviral activity against Dengue virus 2 S221 infected in DENV antibody dependent enhancement AG129 mouse model assessed as animal survival at 750 mg/kg, po administered via gavage as two doses at 36 and 52 hrs post infection (reference value: 4%); type: functional
Influenza A virus [28] = experiment: Antiviral activity against Influenza A virus (A/Texas/36/1991(H1N1)) infected in BALB/c mouse assessed as median death time at 750 mg/kg, po administered via gavage as single dose at 16 hrs post infection (reference value: 8.5 days); type: functional
Mus musculus [29] = experiment: In vivo inhibition of ERGlu2 in BALB/c mouse assessed as increase in di-glucosylated FOS level in serum at 100 mg/kg, po administered via gavage starting at 8 hrs post-infection and continuing tid for 5 days and measured at 8 hrs post-final dose by NP-HPLC analysis; type: functional, organism-based

COCCCCCCCCCN1C[C@H](O)[C@@H](O)[C@H](O)[C@H]1CO.Cl
inhibition (Mus musculus [1]): Active
inhibition (Mus musculus [2]): Active
Activity (dengue virus type 2 [3]): Active
survival at 500 mg/kg (Influenza A virus [4]): 100%
Activity (dengue virus type 2 [5]): Active
Activity (Influenza A virus [6]): Active
Activity (dengue virus type 2 [7]): Active
Activity (dengue virus type 2 [8]): Active
MTD [9]: 258 mg/kg
Time (Influenza A virus [10]): 9.5 days
survival at 375 mg/kg (dengue virus type 2 [11]): 100%
survival at 250 mg/kg (dengue virus type 2 [12]): 100%
survival at 750 mg/kg (dengue virus type 2 [13]): 100%
survival at 750 mg/kg (dengue virus type 2 [14]): 100%
Time (Influenza A virus [15]): >14 days
Activity (dengue virus type 2 [16]): Active
Activity (dengue virus type 2 [17]): Active
Activity (dengue virus type 2 [18]): Active
survival at 750 mg/kg (dengue virus type 2 [19]): 94%
Activity (dengue virus type 2 [20]): Active
survival at 750 mg/kg (Influenza A virus [21]): 100%
Activity (dengue virus type 2 [22]): Active
Time (Influenza A virus [23]): 12 days
Activity (Influenza A virus [24]): Active
Activity (dengue virus type 2 [25]): Active
Activity (dengue virus type 2 [26]): Active
survival at 750 mg/kg (dengue virus type 2 [27]): 100%
Time (Influenza A virus [28]): >14 days
inhibition (Mus musculus [29]): Active

— ChEMBL document CHEMBL4402592, “Targeting Endoplasmic Reticulum α-Glucosidase I with a Single-Dose Iminosugar Treatment Protects against Lethal Influenza and Dengue Virus Infections” (J Med Chem, 2020)
